In brackets after ≈: the same amount, converted by molar mass. Like-named read-outs stand apart in the source and are kept apart here.
What was measured:
[1] = test system: gram-positive and gram-negative bacteria, including resistant strains; settings: reported in earlier applications, cited from earlier work
[2] = test system: Staphylococcus aureus 209P; assay: MIC, standard serial dilution method; type: cell-based; settings: pH 7, read-out: MIC
Experimental: (§1) Antibacterial activities of each of the abovementioned compounds of the general formula (I) according to this invention were determined by measuring their minimum growth inhibitory concentrations (MIC, mcg/ml) against various bacteria in accordance with a standard serial dilution method. The pH condition of the incubation medium where the MIC data were measured was set at pH 7, unless otherwise specifically indicated. For the sake of comparison, the antibacterial spectra of 1-N-{(S)-4-amino-2-hydroxybutyryl}kanamycin A (i.e., amikacin) and 1-N-{(S)-4-amino-2-hydroxybutyryl}-3,4-dideoxykanamycin B (i.e., habekacin) were also measured in the same manner.

Serratia marcescens = assay: MIC, standard serial dilution method; type: cell-based; settings: pH 7, read-out: MIC
Experimental: as §1

[3] = test system: Corynebacterium bovis 1810; assay: MIC, standard serial dilution method; type: cell-based; settings: Corynebacterium bovis, 1810, pH 7; read-out: MIC
Experimental: as §1

Providencia sp. Pv 16 = assay: MIC, standard serial dilution method; type: cell-based; settings: SP.PV16, pH 7, read-out: MIC
Experimental: as §1

Escherichia coli K-12 = assay: MIC, standard serial dilution method; type: cell-based; settings: K12, pH 7
Experimental: as §1

[4] = test system: Klebsiella pneumoniae 22 #3038; assay: MIC, standard serial dilution method; type: cell-based; settings: pH 7, read-out: MIC
Experimental: as §1

[5] = test system: Escherichia coli K-12 LA 290 R55; assay: MIC, standard serial dilution method; type: cell-based; settings: K12LA290R55, pH 7
Experimental: as §1

[6] = test system: Pseudomonas aeruginosa A3; assay: MIC, standard serial dilution method; type: cell-based; settings: A3, pH 7, read-out: MIC
Experimental: as §1

[7] = test system: Pseudomonas aeruginosa GN 315; assay: MIC, standard serial dilution method; type: cell-based; settings: GN315, pH 7
Experimental: as §1

Escherichia coli JR 225 = assay: MIC, standard serial dilution method; type: cell-based; settings: JR225, pH 7
Experimental: as §1

Bacillus subtilis PCI219 = assay: MIC, standard serial dilution method; type: cell-based; settings: PCI219, pH 7, read-out: MIC
Experimental: as §1

Mycobacterium 607 = assay: MIC, standard serial dilution method; type: cell-based; settings: Mycobacterium, 607, pH 7; read-out: MIC
Experimental: as §1

Proteus rettgeri GN 311 = assay: MIC, standard serial dilution method; type: cell-based; settings: Providencia rettgeri, GN311, pH 7; read-out: MIC
Experimental: as §1

[8] = test system: Escherichia coli K-12 ML 1629; assay: MIC, standard serial dilution method; type: cell-based; settings: K12ML1629, pH 7, read-out: MIC
Experimental: as §1

[9] = test system: Staphylococcus aureus Ap01; assay: MIC, standard serial dilution method; type: cell-based; settings: AP01, pH 7, read-out: MIC
Experimental: as §1

[10] = test system: Escherichia coli JR66/W677; assay: MIC, standard serial dilution method; type: cell-based; settings: Escherichia coli, read-out: MIC
Experimental: as §1
(§2) (a) The antibacterial activities of the compounds of this invention are not decreased practically even under pH conditions of pH […] as compared to their antibacterial activities under neutral conditions of pH 7.

[11] = test system: Pseudomonas aeruginosa TI 13; assay: MIC, standard serial dilution method; type: cell-based; settings: Pseudomonas aeruginosa, read-out: MIC
Experimental: as §1, §2

Escherichia coli K-12 R5 = assay: MIC, standard serial dilution method; type: cell-based; settings: K12R5, pH 7
Experimental: as §1
Infectious diseases by Escherichia coli K-12 R5 tend to increase in recent days. The compounds of this invention are therefore important for the therapeutic treatment of bacterial infections.

mice = assay: Acute toxicity against mice; type: in vivo; settings: orally administered, 150 mg/kg

Compound	MIC [2] [µg/mL]	MIC (Serratia marcescens) [µg/mL]	MIC [3] [µg/mL]	MIC (Providencia sp. Pv 16) [µg/mL]	MIC (Escherichia coli K-12) [µg/mL]	MIC [4] [µg/mL]	MIC [5] [µg/mL]	MIC [6] [µg/mL]	MIC [7] [µg/mL]	MIC (Escherichia coli JR 225) [µg/mL]	MIC (Bacillus subtilis PCI219) [µg/mL]	MIC (Mycobacterium 607) [µg/mL]	MIC (Proteus rettgeri GN 311) [µg/mL]	MIC [8] [µg/mL]	MIC [9] [µg/mL]	MIC ([10]; JR66/W677, pH 7) [µg/mL]	MIC ([10]; JR66/W677, measured at pH 6) [µg/mL]	MIC ([11]; TI13, pH 7) [µg/mL]	MIC ([11]; TI13, measured at pH 6) [µg/mL]	MIC (Escherichia coli K-12 R5) [µg/mL]	also measured
NC[C@H]1O[C@H](O[C@H]2[C@H](O)[C@@H](O[C@H]3O[C@H](CO)[C@@H](O)[C@H](N)[C@H]3O)[C@H](N)C[C@@H]2N)[C@H](F)C[C@@H]1O [2',3'-dideoxy-2'-fluorokanamycin A]	–	–	–	–	–	–	–	–	–	–	–	–	–	–	–	–	–	–	–	–	antibacterial activities (in words) [1]: antibacterial activities against gram-positive and gram-negative bacteria, including certain resistant strains of bacteria
NC[C@H]1O[C@H](O[C@H]2[C@H](O)[C@@H](O[C@H]3O[C@H](CO)[C@@H](O)[C@H](N)[C@H]3O)[C@H](N)C[C@@H]2N)[C@H](O)[C@@H](F)[C@@H]1O [3'-deoxy-3'-fluorokanamycin A]	–	–	–	–	–	–	–	–	–	–	–	–	–	–	–	–	–	–	–	–	antibacterial activities (in words) [1]: effective also against kanamycin-resistant bacteria
NC[C@H]1O[C@H](O[C@H]2[C@H](O)[C@@H](O[C@H]3O[C@H](CO)[C@@H](O)[C@H](N)[C@H]3O)[C@H](N)C[C@@H]2N)[C@H](N)[C@@H](F)[C@@H]1O [3'-deoxy-3'-fluorokanamycin B]	–	–	–	–	–	–	–	–	–	–	–	–	–	–	–	–	–	–	–	–	antibacterial activities (in words) [1]: antibacterial activities against various gram-positive and gram-negative bacteria, including resistant strains
NC[C@H]1O[C@H](O[C@H]2[C@H](F)[C@@H](O[C@H]3O[C@H](CO)[C@@H](O)[C@H](N)[C@H]3O)[C@H](N)C[C@@H]2N)[C@H](N)[C@@H](O)[C@@H]1O [5-deoxy-5-fluorokanamycin B]	–	–	–	–	–	–	–	–	–	–	–	–	–	–	–	–	–	–	–	–	antibacterial activities relative to kanamycin B ([1]; over kanamycin B): enhanced or improved advantageously over kanamycin B
NC[C@@H](F)[C@H](O)C(=O)N[C@@H]1C[C@H](N)[C@@H](O[C@H]2O[C@H](CN)[C@@H](O)[C@H](O)[C@H]2O)[C@H](F)[C@H]1O[C@H]1O[C@H](CO)[C@@H](O)[C@H](N)[C@H]1O [Invention Compound No. 4, 1-N-{(2R,3R)-4-Amino-3-fluoro-2-hydroxybutyryl}-5-deoxy-5-fluorokanamycin A]	1.56 (≈ 2.58 µM)	6.25 (≈ 10.3 µM)	0.39 (≈ 0.644 µM)	1.56 (≈ 2.58 µM)	0.78 (≈ 1.29 µM)	3.12 (≈ 5.15 µM)	0.78 (≈ 1.29 µM)	1.56 (≈ 2.58 µM)	25 (≈ 41.3 µM)	0.39 (≈ 0.644 µM)	3.12 (≈ 5.15 µM)	3.12 (≈ 5.15 µM)	1.56 (≈ 2.58 µM)	0.39 (≈ 0.644 µM)	6.25 (≈ 10.3 µM)	1.56 (≈ 2.58 µM)	3.12 (≈ 5.15 µM)	3.12 (≈ 5.15 µM)	3.12 (≈ 5.15 µM)	6.25 (≈ 10.3 µM)	–
NC[C@@H](F)[C@H](O)C(=O)N[C@@H]1C[C@H](N)[C@@H](O[C@H]2O[C@H](CN)[C@@H](O)[C@H](O)[C@H]2N)[C@H](O)[C@H]1O[C@H]1O[C@H](CO)[C@@H](O)[C@H](N)[C@H]1O [Invention Compound No. 5, 1-N-{(2R,3R)-4-Amino-3-fluoro-2-hydroxybutyryl}-kanamycin B]	0.78 (≈ 1.29 µM)	6.25 (≈ 10.4 µM)	0.39 (≈ 0.647 µM)	1.56 (≈ 2.59 µM)	0.2 (≈ 0.332 µM)	3.12 (≈ 5.18 µM)	0.78 (≈ 1.29 µM)	0.78 (≈ 1.29 µM)	6.25 (≈ 10.4 µM)	0.39 (≈ 0.647 µM)	1.56 (≈ 2.59 µM)	12.5 (≈ 20.7 µM)	0.39 (≈ 0.647 µM)	0.78 (≈ 1.29 µM)	6.25 (≈ 10.4 µM)	0.78 (≈ 1.29 µM)	3.12 (≈ 5.18 µM)	1.56 (≈ 2.59 µM)	3.12 (≈ 5.18 µM)	3.12 (≈ 5.18 µM)	–
NC[C@@H](F)[C@H](O)C(=O)N[C@@H]1C[C@H](N)[C@@H](O[C@H]2O[C@H](CN)[C@@H](O)C[C@H]2N)[C@H](O)[C@H]1O[C@H]1O[C@H](CO)[C@@H](O)[C@H](N)[C@H]1O [Invention Compound No. 6, 1-N-{(2R,3R)-4-Amino-3-fluoro-2-hydroxybutyryl}-3'-deoxykanamycin B]	0.39 (≈ 0.665 µM)	3.12 (≈ 5.32 µM)	0.39 (≈ 0.665 µM)	0.78 (≈ 1.33 µM)	< 0.2	1.56 (≈ 2.66 µM)	0.39 (≈ 0.665 µM)	< 0.2	3.12 (≈ 5.32 µM)	< 0.2	0.2 (≈ 0.341 µM)	0.78 (≈ 1.33 µM)	0.39 (≈ 0.665 µM)	0.78 (≈ 1.33 µM)	0.78 (≈ 1.33 µM)	0.39 (≈ 0.665 µM)	1.56 (≈ 2.66 µM)	0.78 (≈ 1.33 µM)	3.12 (≈ 5.32 µM)	3.12 (≈ 5.32 µM)	–
NC[C@@H]1CC[C@@H](N)[C@@H](O[C@H]2[C@H](O)[C@@H](O[C@H]3O[C@H](CO)[C@@H](O)[C@H](N)[C@H]3O)[C@H](NC(=O)[C@@H](O)[C@H](F)CN)C[C@@H]2N)O1 [Invention Compound No. 7, 1-N-{(2R,3R)-4-Amino-3-fluoro-2-hydroxybutyryl}-3',4'-dideoxykanamycin B]	< 0.2	3.12 (≈ 5.47 µM)	< 0.2	0.78 (≈ 1.37 µM)	< 0.2	0.78 (≈ 1.37 µM)	0.39 (≈ 0.683 µM)	0.39 (≈ 0.683 µM)	3.12 (≈ 5.47 µM)	0.78 (≈ 1.37 µM)	< 0.2	0.78 (≈ 1.37 µM)	< 0.2	0.78 (≈ 1.37 µM)	0.78 (≈ 1.37 µM)	0.78 (≈ 1.37 µM)	1.56 (≈ 2.73 µM)	0.78 (≈ 1.37 µM)	1.56 (≈ 2.73 µM)	3.12 (≈ 5.47 µM)	–
NC[C@@H](F)[C@H](O)C(=O)N[C@@H]1C[C@H](N)[C@@H](O[C@H]2O[C@H](CN)[C@@H](O)[C@H](O)[C@H]2N)[C@H](F)[C@H]1O[C@H]1O[C@H](CO)[C@@H](O)[C@H](N)[C@H]1O [Invention Compound No. 8, 1-N-{(2R,3R)-4-Amino-3-fluoro-2-hydroxybutyryl}-5-deoxy-5-fluorokanamycin B]	0.39 (≈ 0.645 µM)	1.56 (≈ 2.58 µM)	0.39 (≈ 0.645 µM)	0.78 (≈ 1.29 µM)	< 0.2	3.12 (≈ 5.16 µM)	0.39 (≈ 0.645 µM)	0.39 (≈ 0.645 µM)	6.25 (≈ 10.3 µM)	0.2 (≈ 0.331 µM)	0.39 (≈ 0.645 µM)	12.5 (≈ 20.7 µM)	0.2 (≈ 0.331 µM)	0.78 (≈ 1.29 µM)	6.25 (≈ 10.3 µM)	0.78 (≈ 1.29 µM)	3.12 (≈ 5.16 µM)	1.56 (≈ 2.58 µM)	6.25 (≈ 10.3 µM)	3.12 (≈ 5.16 µM)	–
NC[C@@H](F)[C@H](O)C(=O)N[C@@H]1C[C@H](N)[C@@H](O[C@H]2O[C@H](CN)[C@@H](O)C[C@H]2N)[C@H](F)[C@H]1O[C@H]1O[C@H](CO)[C@@H](O)[C@H](N)[C@H]1O [Invention Compound No. 9, 1-N-{(2R,3R)-4-Amino-3-fluoro-2-hydroxybutyryl}-5,3'-dideoxy-5-fluorokanamycin B]	0.39 (≈ 0.663 µM)	3.12 (≈ 5.3 µM)	< 0.2	0.78 (≈ 1.33 µM)	< 0.2	0.78 (≈ 1.33 µM)	0.39 (≈ 0.663 µM)	0.2 (≈ 0.34 µM)	3.12 (≈ 5.3 µM)	0.2 (≈ 0.34 µM)	< 0.2	1.56 (≈ 2.65 µM)	0.2 (≈ 0.34 µM)	0.78 (≈ 1.33 µM)	0.78 (≈ 1.33 µM)	0.39 (≈ 0.663 µM)	1.56 (≈ 2.65 µM)	0.78 (≈ 1.33 µM)	3.12 (≈ 5.3 µM)	3.12 (≈ 5.3 µM)	–
NC[C@@H]1CC[C@@H](N)[C@@H](O[C@H]2[C@H](F)[C@@H](O[C@H]3O[C@H](CO)[C@@H](O)[C@H](N)[C@H]3O)[C@H](NC(=O)[C@@H](O)[C@H](F)CN)C[C@@H]2N)O1 [Invention Compound No. 10, 1-N-{(2R,3R)-4-Amino-3-fluoro-2-hydroxybutyryl}-5,3',4'-trideoxy-5-fluorokanamycin B]	0.39 (≈ 0.681 µM)	1.56 (≈ 2.72 µM)	< 0.2	0.78 (≈ 1.36 µM)	0.2 (≈ 0.349 µM)	0.78 (≈ 1.36 µM)	0.39 (≈ 0.681 µM)	< 0.2	3.12 (≈ 5.45 µM)	< 0.2	0.2 (≈ 0.349 µM)	0.78 (≈ 1.36 µM)	< 0.2	0.39 (≈ 0.681 µM)	0.78 (≈ 1.36 µM)	0.39 (≈ 0.681 µM)	1.56 (≈ 2.72 µM)	0.78 (≈ 1.36 µM)	3.12 (≈ 5.45 µM)	3.12 (≈ 5.45 µM)	–
NC[C@@H](F)[C@H](O)C(=O)N[C@@H]1C[C@H](N)[C@@H](O[C@H]2O[C@H](CN)[C@@H](O)[C@H](O)[C@H]2O)[C@H](O)[C@H]1O[C@H]1O[C@H](CO)[C@@H](O)[C@H](N)[C@H]1O [Invention Compound Nos. 1]	–	–	–	–	–	–	–	–	–	–	–	–	–	–	–	–	–	–	–	–	survival of mice (mice): all mice surrived

From patent publication US4873225A, “1-n-(4-amino-3-fluoro-2-hydroxybutyryl)-kanamycins” (Zaidan Hojin Biseibutsu Kagaku Kenkyu Kai, priority 1987, dated 1989)
